Literature values as cited in patent publication US20170368135A1, “HERBAL DRUG COMPOSITION CONTAINING PROBIOTIC AND OPTIONALLY PREBIOTIC AND/OR ACTIVE PHARMACEUTICAL INGREDIENT” (VITALIVA, LLC, priority 2016, published 2017).

Tests used:
alcoholic liver disease = conditions: in vivo

SMILES: COc1cc(/C=C/C(=O)CC(=O)/C=C/c2ccc(O)c(OC)c2)ccc1O [Curcumin]
- endotoxin-mediated activation of NF-κB (NF-κB in Kupffer cells): phsyciological changes induced by alcohol. Curcumin blocks
- expression of cytokines, chemokines, COX-2, and iNOS (NF-κB in Kupffer cells; Kupffer cells): endotoxin-mediated activation of NF-κB and suppresses the expression
- physiological changes induced by alcohol (alcoholic liver disease): dietary spice turmeric, shows that curcimin administration prevented
